In series [1] the test system is Protein cereblon/Estrogen receptor (Homo sapiens), P03372+Q96SW2 [Y537S]. Description: In vivo PROTAC activity at CRBN/ESR1 Y537S mutant in SCID mouse xenografted with human MCF7 cells assessed as reduction in ESR1 Y537S level in tumor at 10 mg/kg, po measured after 24 hrs by Western blot analysis. Set-up: scale not given: the % may be the effect or the level left. Type of series: functional, organism-based.

The nature of series [2]: Drug concentration in SCID mouse plasma at 10 mg/kg, po administered once daily measured at 24 hrs by LC-MS/MS analysis. Type of series: ADME, organism-based.
Series [3] can be described thus: Oral bioavailability in mouse at 3 mg/kg measured upto 24 hrs by LC-MS/MS analysis. It counts as ADME, organism-based. The note with it: in vivo.
The target in series [4] is T1, Cytochrome P450 2C8 (Homo sapiens, UniProt P10632).
T1 sequence (P10632 whole entry): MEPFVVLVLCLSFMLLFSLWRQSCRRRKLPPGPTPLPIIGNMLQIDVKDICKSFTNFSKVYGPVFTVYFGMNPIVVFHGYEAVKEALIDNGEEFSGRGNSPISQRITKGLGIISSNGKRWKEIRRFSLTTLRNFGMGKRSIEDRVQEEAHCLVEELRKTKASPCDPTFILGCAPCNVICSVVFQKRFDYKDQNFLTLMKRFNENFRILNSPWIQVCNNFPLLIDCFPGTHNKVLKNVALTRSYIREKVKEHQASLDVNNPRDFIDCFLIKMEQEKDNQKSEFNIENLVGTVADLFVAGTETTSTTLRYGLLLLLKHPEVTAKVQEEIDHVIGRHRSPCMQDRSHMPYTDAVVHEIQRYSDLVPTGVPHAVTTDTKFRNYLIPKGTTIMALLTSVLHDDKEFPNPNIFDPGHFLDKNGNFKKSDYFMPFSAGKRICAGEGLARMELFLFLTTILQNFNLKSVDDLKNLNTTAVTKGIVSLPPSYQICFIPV
Description: Inhibition of CYP2C8 in human liver microsomes incubated for 5 mins in presence of NADPH by LC-MS/MS analysis. Type of series: ADME, Microsome.

Series [5] addresses Cytochrome P450 2C19 (Homo sapiens, UniProt P33261). Description: Inhibition of CYP2C19 in human liver microsomes incubated for 5 mins in presence of NADPH by LC-MS/MS analysis. Type of series: ADME, Microsome.
Series [6] concerns MCF7. Description: Antiproliferative activity against human MCF7 cells assessed as cell growth inhibition incubated for 4 days by crystal violet staining based assay. Type of series: functional. The note with it: time 4.0 day.
The nature of series [7]: Drug concentration in SCID mouse plasma at 10 mg/kg, po administered once daily for 3 days measured after 24 hrs by LC-MS/MS analysis. Type of series: ADME, organism-based.
The target of series [8] is T2, Protein cereblon/Estrogen receptor (Homo sapiens, UniProt P03372+Q96SW2). The experiment in a line: PROTAC activity at CRBN/wild type ERalpha in human T47D cells assessed as reduction in ERalpha protein level at 10 to 100 nM measured at 7 hrs by Western blot analysis. Type of series: cell-based. The settings on record: dose 10-100 nM.
Series [9] can be described thus: Toxicity in SCID mouse implanted with human MCF7 cells ESR1 Y537S mutant assessed as change in body weight at 3 to 30 mg/kg, po administered 5 days a week for 7 weeks. Type of series: organism-based. The settings on record: in vivo, 1176 h, dose 3-30 mg/kg.
Series [10] addresses Voltage-gated inwardly rectifying potassium channel KCNH2 (Homo sapiens, UniProt Q12809). The experiment in a line: Inhibition of hERG in HEK293 cells at 10 uM by whole-cell patch clamp assay relative to control. It counts as toxicity, cell-based. The settings on record: hek293, 10 µM.
The nature of series [11]: Volume of distribution at steady state in dog at 3 mg/kg, po or 1 mg/kg, iv measured upto 24 hrs by LC-MS/MS analysis. Type of series: ADME, organism-based, Canis lupus familiaris. The note with it: in vivo.
Series [12] has as its system MCF7. The experiment in a line: Antitumor activity against human MCF7 cells xenografted in SCID mouse assessed as tumor growth inhibition at 30 mg/kg, po administered for 5 weeks and measured on day 81. It counts as functional. The note with it: MCF7, 1944 h, time 81 day, read-out: TGI.
For series [13], the target named is T2, Protein cereblon/Estrogen receptor. Description: PROTAC activity at CRBN/ERalpha in human MCF7 cells assessed as reduction in ERalpha protein level at 5 nM measured for 4 hrs by Western blot analysis. It counts as cell-based.
Series [14] in a line: Metabolic stability human liver microsome assessed as half life. Type of series: ADME. The settings on record: microsomes.
The nature of series [15]: Stability in mouse plasma assessed as half life. Type of series: ADME, cell-free.
Series [16] in a line: Drug concentration in SCID mouse plasma at 30 mg/kg, po administered once daily for 3 days measured after 24 hrs by LC-MS/MS analysis. Type of series: ADME, organism-based.

The text below walks through data of ChEMBL document CHEMBL6083286, “Discovery of ERD-12310A as an Exceptionally Potent and Orally Efficacious PROTAC Degrader of Estrogen Receptor α (ERα)” (J Med Chem, 2024).

Activity calls are given as the source filed them. The calls are words filed in the database; no cut-off is given here.

T2 sequence (P03372 whole entry, looked up): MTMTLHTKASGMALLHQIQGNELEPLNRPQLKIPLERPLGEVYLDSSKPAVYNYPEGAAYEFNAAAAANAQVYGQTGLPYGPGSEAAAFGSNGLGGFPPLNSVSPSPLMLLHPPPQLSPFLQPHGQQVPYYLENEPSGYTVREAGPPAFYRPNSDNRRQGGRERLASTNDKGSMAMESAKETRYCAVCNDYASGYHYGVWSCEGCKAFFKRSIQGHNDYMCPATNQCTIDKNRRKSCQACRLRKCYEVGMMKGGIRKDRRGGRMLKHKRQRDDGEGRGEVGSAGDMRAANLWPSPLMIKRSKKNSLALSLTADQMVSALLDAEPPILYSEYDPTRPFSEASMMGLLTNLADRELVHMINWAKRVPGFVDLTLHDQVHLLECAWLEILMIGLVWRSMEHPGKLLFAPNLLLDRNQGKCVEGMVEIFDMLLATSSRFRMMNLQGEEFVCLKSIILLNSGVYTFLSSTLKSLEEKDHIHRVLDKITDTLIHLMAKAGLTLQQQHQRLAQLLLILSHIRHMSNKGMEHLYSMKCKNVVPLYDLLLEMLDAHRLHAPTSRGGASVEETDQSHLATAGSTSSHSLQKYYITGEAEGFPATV
T2 sequence (Q96SW2 whole entry, looked up): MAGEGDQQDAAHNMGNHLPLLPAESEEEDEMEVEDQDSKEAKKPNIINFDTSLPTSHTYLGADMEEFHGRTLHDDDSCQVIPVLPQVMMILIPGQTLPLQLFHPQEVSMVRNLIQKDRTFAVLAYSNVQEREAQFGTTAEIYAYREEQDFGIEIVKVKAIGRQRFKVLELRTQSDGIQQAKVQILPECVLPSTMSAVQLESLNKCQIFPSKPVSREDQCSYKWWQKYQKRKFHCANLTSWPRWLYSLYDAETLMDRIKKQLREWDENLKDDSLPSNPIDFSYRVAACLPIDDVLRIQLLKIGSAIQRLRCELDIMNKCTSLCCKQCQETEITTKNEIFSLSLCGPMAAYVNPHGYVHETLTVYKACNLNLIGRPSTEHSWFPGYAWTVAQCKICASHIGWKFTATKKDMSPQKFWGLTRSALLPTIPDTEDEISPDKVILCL
Chain of Voltage-gated inwardly rectifying potassium channel KCNH2 (Q12809 whole entry): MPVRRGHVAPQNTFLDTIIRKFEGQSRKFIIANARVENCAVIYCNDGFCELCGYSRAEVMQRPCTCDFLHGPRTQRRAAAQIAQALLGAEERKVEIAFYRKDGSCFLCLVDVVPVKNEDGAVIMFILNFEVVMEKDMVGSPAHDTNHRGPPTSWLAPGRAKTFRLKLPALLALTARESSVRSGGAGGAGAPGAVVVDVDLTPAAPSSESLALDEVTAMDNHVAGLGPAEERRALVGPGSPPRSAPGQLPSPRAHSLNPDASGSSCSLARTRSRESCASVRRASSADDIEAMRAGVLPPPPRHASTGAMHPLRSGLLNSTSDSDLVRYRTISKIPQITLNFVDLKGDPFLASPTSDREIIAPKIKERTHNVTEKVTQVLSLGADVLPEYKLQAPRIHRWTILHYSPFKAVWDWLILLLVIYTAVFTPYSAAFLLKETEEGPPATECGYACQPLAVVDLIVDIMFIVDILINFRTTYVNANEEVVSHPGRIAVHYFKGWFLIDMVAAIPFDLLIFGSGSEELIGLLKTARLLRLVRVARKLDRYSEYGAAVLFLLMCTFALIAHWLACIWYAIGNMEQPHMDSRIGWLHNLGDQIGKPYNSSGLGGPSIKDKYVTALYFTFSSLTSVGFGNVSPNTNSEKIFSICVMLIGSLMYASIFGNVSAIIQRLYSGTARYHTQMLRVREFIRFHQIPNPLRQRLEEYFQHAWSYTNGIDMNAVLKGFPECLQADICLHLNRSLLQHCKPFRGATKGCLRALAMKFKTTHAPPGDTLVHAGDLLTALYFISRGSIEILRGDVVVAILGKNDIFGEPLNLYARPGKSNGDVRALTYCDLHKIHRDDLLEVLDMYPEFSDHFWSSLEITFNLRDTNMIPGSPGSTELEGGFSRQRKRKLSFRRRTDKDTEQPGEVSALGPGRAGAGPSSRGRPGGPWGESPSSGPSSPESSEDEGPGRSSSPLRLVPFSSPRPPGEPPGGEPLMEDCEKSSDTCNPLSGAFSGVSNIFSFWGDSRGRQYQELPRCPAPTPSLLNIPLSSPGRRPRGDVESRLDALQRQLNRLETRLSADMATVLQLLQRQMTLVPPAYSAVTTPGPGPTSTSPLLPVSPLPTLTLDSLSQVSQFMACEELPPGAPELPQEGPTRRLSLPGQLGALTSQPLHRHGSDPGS
Chain of Cytochrome P450 2C19 (P33261 whole entry): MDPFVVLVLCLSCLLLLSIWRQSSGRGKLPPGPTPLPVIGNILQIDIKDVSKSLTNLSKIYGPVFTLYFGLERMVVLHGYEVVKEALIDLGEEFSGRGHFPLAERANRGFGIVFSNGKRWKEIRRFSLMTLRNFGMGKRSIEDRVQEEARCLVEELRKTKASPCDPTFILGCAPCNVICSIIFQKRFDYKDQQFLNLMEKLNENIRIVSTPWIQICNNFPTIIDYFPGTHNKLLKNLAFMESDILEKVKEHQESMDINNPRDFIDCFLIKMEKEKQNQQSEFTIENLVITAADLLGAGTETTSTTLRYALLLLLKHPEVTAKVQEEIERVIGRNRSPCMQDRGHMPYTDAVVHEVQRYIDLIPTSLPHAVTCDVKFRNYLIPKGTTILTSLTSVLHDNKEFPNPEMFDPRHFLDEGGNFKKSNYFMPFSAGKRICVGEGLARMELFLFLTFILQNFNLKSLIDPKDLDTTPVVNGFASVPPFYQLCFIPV

Consider `O=C1CC[C@H](N2Cc3c(ccc4c3OCC43CCN(C[C@@H]4CCC5(CCN(c6ccc([C@@H]7c8ccc(O)cc8CC[C@@H]7c7ccccc7)cc6)CC5)OC4)CC3)C2=O)C(=O)N1`, for which the values for the Activity in series [1] and in [9] were 71% and “Non-toxic”, respectively. In series [2], this molecule yielded a concentration at 24 h of 7 ng/mL. The molecule also registered a F in series [3] of 37%. Besides, the IC50 was greater than 10 µM in series [4] and 6 µM in series [5]. The outcome in [6], in [8] and in series [13] was Active. The concentration at 96 h worked out at 18 ng/mL in [7] and 72 ng/mL in series [16]. The “inhibition (INH)” value in series [10] was 43.7%. The molecule also yielded a Vdss in series [11] of 3.2 L/kg. Moreover, the inhibition in vivo at 30 mg/kg in [12] was found to be 110%. For the same molecule, the t1/2 is greater than 1 h in series [14] and greater than 4 h in [15].
